We go through five molecules from patent US20240200050A1, “AMINOACYL TRANSFER RNA SYNTHETASES” (Trustees of Tufts College, priority 2021, published 2024).

Assay [1] relates to ncAA-substituted synthetic antibody clones. The assay can be described thus: UV-mediated photocrosslinking of ncAA-substituted synthetic antibody clones on the yeast surface. The note with it: identical sets of crosslinking conditions. As for the experimental part: (§1) Experiments were undertaken to expand the tools available for genetically encoding crosslinkable ncAAs in proteins produced in yeast. As described in the above examples, a large number of aminoacyl-tRNA synthetase (aaRS) variants were discovered that support translation with a broad set of ncAAs. Here, several of these aaRSs were evaluated alongside previously described variants to evaluate their support of protein translation with the ncAAs O-(2-bromoethyl)tyrosine (Obey), 4-benzoyl-1-phenylalanine (Bpa), or N^6-((2-(3-methyl-3H-diazirin-3-yl)ethoxy)carbonyl)-L-lysine (Photo-Lysine, Phk) (FIG. 12A). Although none of these ncAAs were used in any of the screening efforts described in the above Examples. several variants from the screens were nevertheless identified that supported translation at moderate to high efficiencies with Obey and Phk. […] The potential utility of these spontaneously crosslinkable and photocrosslinkable ncAAs was also investigated. […] The display and binding activities of these peptides were confirmed. […] For the cases of Phk and Bpa, photocrosslinkability on the yeast surface was investigated utilizing ncAA-substituted synthetic antibody clones and alongside AzF-substituted clones known to undergo UV-mediated crosslinking.

Another assay concerns antigen. As to the kind of experiment: Antigen binding of yeast-displayed synthetic antibody fragments substituted with ncAAs. As to conditions: ncAA incorporated into yeast-displayed synthetic antibody fragments. As for the experimental part:
as §1

For a further assay, the target named is streptavidin (Streptomyces avidinii, UniProt P22629). As to the kind of experiment: Display and binding of ncAA-substituted anti-streptavidin peptides on the yeast surface. As for the experimental part: as §1
Sequence of streptavidin (P22629 25-183, species assumed): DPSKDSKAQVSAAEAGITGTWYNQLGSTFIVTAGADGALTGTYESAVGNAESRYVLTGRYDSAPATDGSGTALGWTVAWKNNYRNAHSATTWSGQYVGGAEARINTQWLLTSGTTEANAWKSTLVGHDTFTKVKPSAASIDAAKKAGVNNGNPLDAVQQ

Molecules are shown by their SMILES.

With `[N-]=[N+]=Nc1ccc(C[C@H](N)C(=O)O)cc1` [AzF, p-azido-L-phenylalanine], the “crosslinking on the yeast surface (in words)” value (shortened to “crosslinking”) in assay [1] was “clear evidence”. Consider `N[C@@H](Cc1ccc(C(=O)c2ccccc2)cc1)C(=O)O` [Bpa, 4-benzoyl-1-phenylalanine], for which the “antigen binding of ncAA-substituted constructs (in words)” value (from here on “antigen binding”) in the assay with antigen is “retained antigen binding”. In assay [1], the “crosslinking” value was “clear evidence”. Consider `C#CCOc1ccc(C[C@H](N)C(=O)O)cc1` [OPG, p-propargyloxy-L-phenylalanine], for which the “display and binding activities of ncAA-substituted peptides (in words)” value at streptavidin was “confirmed”. As to `N[C@@H](Cc1ccc(OCCBr)cc1)C(=O)O` [Obey, O-(2-Bromoethyl)-L-tyrosine], in the assay with antigen, the “antigen binding” value was “retained antigen binding”. Moreover, the “display and binding activities of ncAA-substituted peptides (in words)” value on streptavidin was “confirmed”. As to `CC1(CCOC(=O)NCCCC[C@H](N)C(=O)O)N=N1` [Phk, N^6-((2-(3-methyl-3H-diazirin-3-yl)ethoxy)carbonyl)-L-lysine], the “antigen binding” value with antigen is given as “retained antigen binding”. Also, the “crosslinking” value in assay [1] was “did not appear to undergo detectable crosslinking”.
